How the values were obtained:
[1] = Heat stability, bulk-polymerised PVC at 0.15 g Sn/100 g PVC (Example 12); conditions: 0.3 part montan wax, 0.15 g of Sn/100 g of PVC
Protocol: (§1) A dry blend, consisting of 100 parts of suspension PVC, 0.5 part of montan wax, 1.0 part of monoglycerol ester and 1.0 part of organo-tin stabiliser according to the table below, is milled on a laboratory mill at 190° C. Every 5 minutes, an 0.3 mm thick piece of film is taken off to asist the discolouration.
Moulding materials consisting of 100 parts of bulk-polymerised PVC and 0.3 part of montan wax together with the organo-tin stabilisers according to the table which follows are examined for their heat stability, analogously to Example 11. The amounts of stabiliser are calculated to correspond to the use of 0.15 g of Sn/100 g of PVC.

rats [2] = assay: Acute oral LD50 in rats; type: in vivo, rat; conditions: for acute oral LD50: rats of both sexes, oral intubation
Protocol: Compound III was weighed into an Erlenmeyer flask. It was diluted at 30 and 50% with carboxymethylcellulose and administered by oral intubation.
The compound was tested on 40 rats (20 males/20 females). They were 6 to 7 weeks old and weighed 160 to 180 g.
The males and females were segregated and housed in Macrolon cages in groups of 5 in a room kept at a constant temperature of 22 ±1° C. and a relative humidity of approximately 50%. They received water and food ad libitum. The rats were starved during one night before starting the treatment. The doses were 3170, 4640, 6000 and 10,000 mg/kg body weight.

rats [3] = assay: No effect level, 90-day dietary administration to rats with 28-day recovery; type: in vivo, rat; conditions: for no effect level (dietary concentration): diet
Protocol: Compound III was administered in the diet to groups of 30 (groups 2 and 3) and 40 (group 4) rats at concentrations of 300, 1000 and 3000 ppm respectively (equivalent to an average daily intake of 19, 62 and 179 mg/kg body weight), for not less than 90 days. Forty rats in the control group received the same diet but without the addition of Compound III.
Ten rats (5+5) from each of groups 1 (control) and 4 (3000 ppm) were retained without treatment for 28 days after the end of the main study, as a recovery experiment.

[4] = Heat stability test on laboratory mill (Example 11); conditions: 190° C., 1.0 part stabiliser per 100 parts suspension PVC, 0.5 part montan wax, 1.0 part monoglycerol ester
Protocol: as §1

[5] = Milling test, vinyl chloride/vinyl acetate copolymer (Example 13); conditions: 20 minutes at 180° C., 1.35 g stabiliser, 0.13 g of tin per 100 parts of copolymer
Description: 100 parts of a vinyl chloride/vinyl acetate copolymer (vinyl acetate content 10%, K-value 60 to 61) are premixed with 0.5 part of montan wax, 1.0 part of monoglycerol ester and an organo-tin stabiliser of the formula C8 H17 Sn(SCH2 COO-n-C16 H33)3. The amount of organo-tin stabiliser (1.35 g) is so chosen that 0.13 g of tin are present per 100 parts of copolymer.

[6] = Milling test, plasticised suspension PVC (Example 14); conditions: 180° C., 0.5 part by weight stabiliser
Protocol: A mixture of 100 parts by weight of suspension PVC (K-value 71), 40 parts by weight of di-2-ethylhexyl phthalate, 0.3 part by weight of montan wax and 0.5 part by weight of octyl-tin tris-cetyl-thioglycollate, corresponding to 0.05 g of Sn/100 g of PVC, is milled on a laboratory mill at 180° C. until yellowing beings to occur.

[7] = Milling test, impact-modified suspension PVC (Example 15); conditions: 190° C.
Protocol: Experiment 1: A dry blend, consisting of 100 parts by weight of suspension PVC (K-value 58), 1.0 part by weight of wax ester and 0.2 part by weight of montan wax as the lubricant, 1.0 part by weight of acrylic resin as a processing aid, 12.0 parts by weight of MBS modifying resin, as an additive to improve impact strength, and 0.8 part by weight of methyl-tin tris-(myristyl-thioglycollate), corresponding to 0.09 part of tin, is milled on a laboratory mill at 190° C. Every 5 minutes, an 0.3 mm thick piece of film is removed to assess the discolouration.
Experiment 2: The above experiment is repeated with 1.1 parts by weight of the same stabiliser, corresponding to 0.13 part of tin. The very slight yellow discolouration in this case occurs after 20 minutes, and the light yellow discolouration after 25 minutes.

[8] = tin content of 49%; known stabiliser; cited from earlier work
[9] = 0.8 part by weight stabiliser, 0.09 part of tin (Experiment 1)
[10] = 1.1 parts by weight stabiliser, 0.13 part of tin (Experiment 2)
[11] = 300, 1000 and 3000 ppm in diet, not less than 90 days

CCCCCCCCCCCCCCCCOC(=O)C[S][Sn]([CH2]CCC)([S]CC(=O)OCCCCCCCCCCCCCCCC)[S]CC(=O)OCCCCCCCCCCCCCCCC [Example 3, butyl-tin tris-(cetyl-thioglycollate)]
Time in minutes for which the films remain colourless [1]: 35 min

CCCCCCC[CH2][Sn]([CH2]CCCCCCC)([S]CC(=O)OCCCCCC(C)C)[S]CC(=O)OCCCCCC(C)C [Compound I, (n-C8 H17)2 Sn(SCH2 COO-i-C8 H17)2, reference compound]
acute oral LD50 (rats [2]; 14 days): 2000 mg/kg
no effect level (dietary concentration) (rats [3]; rats, not less than 90 days): 25 ppm

CCCCCCCCCCCCCCCCOC(=O)C[S][Sn]([CH2]CCCCCCC)([S]CC(=O)OCCCCCCCCCCCCCCCC)[S]CC(=O)OCCCCCCCCCCCCCCCC [Example 10, octyl-tin tris-(cetyl-thioglycollate)]
Heat stability of the moulding material (time to recognisable colour change to light brown-yellow) [4]: 25 min
yellowing detectable after milling [5]: only very slight yellowing is detectable
time until a very slight yellowing is just detectable ([6]; 0.05 g of Sn/100 g of PVC, 40 parts di-2-ethylhexyl phthalate): 74 min
appearance of the mill hide after 105 minutes ([6]; 105 minutes): slightly yellow

CCCCCCC[CH2][Sn]([S]CC(=O)OCCCCCC(C)C)([S]CC(=O)OCCCCCC(C)C)[S]CC(=O)OCCCCCC(C)C [Compound II, n-C8 H17 Sn(SCH2 COO-i-C8 H17)3, reference compound]
acute oral LD50 (rats [2]; 14 days): 5000 mg/kg
no effect level (dietary concentration) (rats [3]; rats, not less than 90 days): 500 ppm

CCCCCCCCCCCCCCOC(=O)C[S][Sn]([CH3])([S]CC(=O)OCCCCCCCCCCCCCC)[S]CC(=O)OCCCCCCCCCCCCCC [Example 1, methyl-tin tris-(myristyl-thioglycollate)]
Heat stability of the moulding material (time to recognisable colour change to light brown-yellow) [4]: 25 min
milling time to reach a light yellow discolouration [7, 9]: 20 min
milling time to reach a very slight yellow discolouration [7, 9]: 15 min
milling time to light yellow discolouration [7, 10]: 25 min
milling time to very slight yellow discolouration [7, 10]: 20 min

octyl-tin tris(alfyl(14)-thioglycollate) [Example 9]
Time in minutes for which the films remain colourless [1]: 35 min

CCCCCCCCCCCCCCOC(=O)C[S][Sn]([CH2]CCCCCCC)([S]CC(=O)OCCCCCCCCCCCCCC)[S]CC(=O)OCCCCCCCCCCCCCC [Compound III, n-C8 H17 Sn(SCH2 COO-n-C14 H29)3]
mortality, acute test (rats [2]; 3170, 4640, 6000 and 10,000 mg/kg body weight, 14 days): No animal died
autopsy findings, acute test (rats [2]; killed animals, 3170 to 10,000 mg/kg): no substance related gross organ changes were seen
acute toxicity grading (rats [2]; rat, oral): slight acute toxicity
acute oral LD50 (rats [2]; 14 days): greater than 10,000 mg/kg
clinical symptoms, 90-day diet study (rats [3]; [11]): no clinical symptoms were recorded
deaths, 90-day diet study (rats [3]; [11]): No deaths occured
body weight gains, food consumption, laboratory parameters, organ weight data after recovery (rats [3]; group 4 (3000 ppm) versus control, 28 days recovery): no significant difference
histopathological changes after recovery (rats [3]; group 4 (3000 ppm), 28 days recovery): No histopathological changes were seen
body weight gain (rats [3]; male rats, 3000 ppm, following day 14, versus untreated controls): gained less body weight than untreated controls
body weights at termination of treatment (rats [3]; male rats, 3000 ppm, versus untreated control animals): slightly below those from untreated control animals
no effect level (dietary concentration) (rats [3]; rats, not less than 90 days): 3000 ppm
no effect level as average daily intake (rats [3]; rats, equivalent to 3000 ppm in diet, 129600 min): 179 mg/kg body weight
feed consumption (rats [3]; top dose rats (3000 ppm)): decreased feed consumption

CCC[CH2][Sn]([S]CC(=O)OCCCCCCCCCCCCCCCC(C)C)([S]CC(=O)OCCCCCCCCCCCCCCCC(C)C)[S]CC(=O)OCCCCCCCCCCCCCCCC(C)C [Example 8, butyl-tin tris-(i-octadecyl thioglycollate)]
Time in minutes for which the films remain colourless [1]: 30 min

butyl:tin tris(alfyl(14)-thioglycollate) [Example 5]
Heat stability of the moulding material (time to recognisable colour change to light brown-yellow) [4]: 25 min

CCCCCCCCCCCCOC(=O)C[S][Sn]([CH2]CCC)([S]CC(=O)OCCCCCCCCCCCC)[S]CC(=O)OCCCCCCCCCCCC [Example 2, butyl-tin tris-(lauryl-thioglycollate)]
Time in minutes for which the films remain colourless [1]: 25 min

butylthiostannonic acid
stabiliser effect relative to tin content [8]: relatively slight effect

butyl-tin tris(alfyl(12)-thioglycollate) [Example 4]
Time in minutes for which the films remain colourless [1]: 30 min

From patent US4193913A, “Thermoplastic vinyl chloride polymers containing monoalkyl-tin-stabilizers” (priority 1978, dated 1980)
